Laboratory results from ChEMBL document CHEMBL4513161, “CO-ADD screening of MMV (CH) - Pandemic Response Box” (2021).
Values after ≈ are worked out from the molar mass of the structure shown. Structures can show the parent of a compound that is named as a salt.

How the values were obtained:
[1] = system: HEK293; test: cells; type: functional, Homo sapiens, ATCC CRL1573; conditions: Homo sapiens, ATCC CRL1573, HEK293; ASSAY_TEST Inhibition of Cell Viability; detection method Resazurin; Fluorescence (ex560/em590); MEDIA DMEM with 10% FBS; plate type 384well; TC; CORNING #3712; time 18 hr; read-out: CC50
[2] = system: Pseudomonas aeruginosa; test: Antibacterial activity against Pseudomonas aeruginosa PAO397 [PAO1 d(mexAB-oprM) d(mexCD-oprJ) d(mexEF-oprN) d(mexJKL) d(mexXY) d(opmH)] (CO-ADD:GN_211); MIC in CAMBH media using NBS plates, by OD(600); type: functional; conditions: ASSAY_TEST Inhibition of Bacterial Growth, detection method Absorption (OD600), MEDIA CAMHB, plate type 384well, CORNING #3640, time 18 hr
[3] = system: Cryptococcus neoformans
Description: Antifungal activity against Cryptococcus neoformans H99 ATCC 208821 (CO-ADD:FG_002); MIC in YNB media using NBS plates, by Resazurin OD(600-570)

[4] = system: Staphylococcus aureus; test: microbe, parasite or virus in culture; conditions: ATCC 43300, 18 h, ASSAY_TEST Inhibition of Bacterial Growth, detection method Absorption (OD600), MEDIA CAMHB, plate type 384well, NBS, CORNING #3640
Description: Antibacterial activity against Staphylococcus aureus MRSA ATCC 43300 (CO-ADD:GP_020); MIC in CAMBH media, using NBS plates, by OD(600)

[5] = system: Escherichia coli; test: microbe, parasite or virus in culture; conditions: ATCC 25922, 18 h, ASSAY_TEST Inhibition of Bacterial Growth, detection method Absorption (OD600), MEDIA CAMHB, plate type 384well, NBS, CORNING #3640
Description: Antibacterial activity against Escherichia coli ATCC 25922 (CO-ADD:GN_001); MIC in CAMBH media using NBS plates, by OD(600)

[6] = system: Klebsiella pneumoniae; test: microbe, parasite or virus in culture; conditions: ATCC 700603, 18 h, ASSAY_TEST Inhibition of Bacterial Growth, detection method Absorption (OD600), MEDIA CAMHB, plate type 384well, NBS, CORNING #3640
Description: Antibacterial activity against Klebsiella pneumoniae MDR ATCC 70063 (CO-ADD:GN_003); MIC in CAMBH media using NBS plates, by OD(600)

[7] = system: Pseudomonas aeruginosa; test: microbe, parasite or virus in culture; conditions: ATCC 27853, 18 h, ASSAY_TEST Inhibition of Bacterial Growth, detection method Absorption (OD600), MEDIA CAMHB, plate type 384well, NBS, CORNING #3640
Description: Antibacterial activity against Pseudomonas aeruginosa ATCC 27853 (CO-ADD:GN_042); MIC in CAMBH media using NBS plates, by OD(600)

[8] = system: Acinetobacter baumannii; test: microbe, parasite or virus in culture; conditions: ATCC 19606, 18 h, ASSAY_TEST Inhibition of Bacterial Growth, detection method Absorption (OD600), MEDIA CAMHB, plate type 384well, NBS, CORNING #3640
Description: Antibacterial activity against Acinetobacter baumannii ATCC 19606 (CO-ADD:GN_034); MIC in CAMBH media using NBS plates, by OD600

[9] = system: Candida albicans; test: microbe, parasite or virus in culture; conditions: ATCC 90028, ASSAY_TEST Inhibition of Fungal Growth, detection method Absorption (OD530), plate type 384well, NBS, CORNING #3640
Description: Antifungal activity against Candida albicans ATCC 90028 (CO-ADD:FG_001); MIC in YNB media using NBS plates, by OD630

Structure (SMILES)	CC50 [1]	MIC [2]	MIC [3]	MIC [4]	MIC [5]	MIC [6]	MIC [7]	MIC [8]	MIC [9]
Fc1ccc2c(/C=C/c3cccnc3)c[nH]c2c1	> 20 µM	> 20 µM	> 20 µM	> 20 µM	> 20 µM	> 20 µM	> 20 µM	> 20 µM	> 20 µM
CC1CN(c2ncnc3c2c(-c2ccccc2)cn3-c2ccc(F)cc2)CC(C)O1 (centres undefined)	> 20 µM	> 20 µM	> 20 µM	> 20 µM	> 20 µM	> 20 µM	> 20 µM	> 20 µM	> 20 µM
NC(=O)c1[nH]c2ccc(S(N)(=O)=O)cc2c1-c1ccccc1	> 20 µM	> 20 µM	> 20 µM	> 20 µM	> 20 µM	> 20 µM	> 20 µM	> 20 µM	> 20 µM
COc1ccc2cc3[n+](cc2c1OCCN(CCn1cncn1)Cc1ccc(F)cc1F)CCc1cc2c(cc1-3)OCO2	> 20 µM	> 20 µM	> 20 µM	> 20 µM	> 20 µM	> 20 µM	> 20 µM	> 20 µM	> 20 µM
CC(C)(C)NC(=O)[C@@H]1C[C@@H]2CCCC[C@@H]2CN1C[C@@H](O)[C@H](Cc1ccccc1)NC(=O)[C@H](CC(N)=O)NC(=O)c1ccc2ccccc2n1	> 20 µM	> 20 µM	> 20 µM	> 20 µM	> 20 µM	> 20 µM	> 20 µM	> 20 µM	> 20 µM
COC(=O)Nc1nc2cc(Sc3ccccc3)ccc2[nH]1 [FENBENDAZOLE]	8.24 µM	> 20 µM	0.312 µM (≈ 0.0935 µg/mL)	> 20 µM	> 20 µM	> 20 µM	> 20 µM	> 20 µM	> 20 µM
CC#C[C@]1(O)CC[C@H]2[C@@H]3CCC4=CC(=O)CCC4=C3[C@@H](c3ccc(N(C)C)cc3)C[C@@]21C [MIFEPRISTONE]	> 20 µM	> 20 µM	> 20 µM	> 20 µM	> 20 µM	> 20 µM	> 20 µM	> 20 µM	> 20 µM
Cc1cc(-c2ccccc2)c(C(=O)C(=O)Nc2ccc(N3CCN(c4ncc(F)cn4)CC3)cc2)n1C [OLOROFIM]	> 20 µM	> 20 µM	> 20 µM	> 20 µM	> 20 µM	> 20 µM	> 20 µM	> 20 µM	> 20 µM
O[C@@](Cn1cnnn1)(c1ccc(F)cc1F)C(F)(F)c1ccc(-c2ccc(OCC(F)(F)F)cc2)cn1 [OTESECONAZOLE]	> 20 µM	> 20 µM	0.625 µM (≈ 0.33 µg/mL)	> 20 µM	> 20 µM	> 20 µM	> 20 µM	> 20 µM	≤ 0.156 µM
CCC(CC)[C@H](NC(C)=O)[C@@H]1[C@H](O)[C@@H](C(=O)O)C[C@H]1NC(=N)N	> 20 µM	> 20 µM	> 20 µM	> 20 µM	> 20 µM	> 20 µM	> 20 µM	> 20 µM	> 20 µM
CC1(C)Cc2c(C#N)c(SCCc3ccccc3)nc(N3CCOCC3)c2CO1	> 20 µM	> 20 µM	> 20 µM	> 20 µM	> 20 µM	> 20 µM	> 20 µM	> 20 µM	> 20 µM
Nc1nc2c(Cc3cccnc3)c[nH]c2c(=O)[nH]1 [PELDESINE]	> 20 µM	> 20 µM	> 20 µM	> 20 µM	> 20 µM	> 20 µM	> 20 µM	> 20 µM	> 20 µM
O=C(O)[C@H]1C2CCC(CC2)[C@@H]1Nc1nc(-c2c[nH]c3ncc(F)cc23)ncc1F [PIMODIVIR]	> 20 µM	> 20 µM	> 20 µM	> 20 µM	> 20 µM	> 20 µM	> 20 µM	> 20 µM	> 20 µM
CN(C/C=C/C#CC(C)(C)C)Cc1cccc2ccccc12 [TERBINAFINE HYDROCHLORIDE]	> 20 µM	> 20 µM	20 µM	> 20 µM	> 20 µM	> 20 µM	> 20 µM	> 20 µM	> 20 µM
O=C(NC1CCCc2c1[nH]c1ccc(Cl)cc21)c1ccccn1 (centres undefined)	> 20 µM	20 µM (≈ 6.52 µg/mL)	> 20 µM	> 20 µM	> 20 µM	> 20 µM	> 20 µM	> 20 µM	> 20 µM
COc1cc(C(C(=O)NC2CCCCC2)N(C(=O)Cc2c[nH]c3ccccc23)c2ccc(C(C)C)cc2)cc(OC)c1OC (centres undefined)	> 20 µM	> 20 µM	> 20 µM	> 20 µM	> 20 µM	> 20 µM	> 20 µM	> 20 µM	> 20 µM
CCCCSc1nc(N)c2[nH]c(=O)c(=O)n(Cc3ccccc3)c2n1	> 20 µM	> 20 µM	> 20 µM	> 20 µM	> 20 µM	> 20 µM	> 20 µM	> 20 µM	> 20 µM
Cc1cccc(C)c1C(=O)Nc1nc(-c2ccccn2)cc2ccccc12	7.29 µM	> 20 µM	> 20 µM	> 20 µM	> 20 µM	> 20 µM	> 20 µM	> 20 µM	> 20 µM
Clc1cc2nc(C3CCNCC3)n(Cc3ccc(CNCCc4c[nH]cn4)cc3)c2cc1Cl	> 20 µM	> 20 µM	> 20 µM	> 20 µM	> 20 µM	> 20 µM	> 20 µM	> 20 µM	> 20 µM
CC(C)n1cnc2c(NCc3ccccc3)nc(NCc3ccccc3)nc21	> 20 µM	> 20 µM	> 20 µM	> 20 µM	> 20 µM	> 20 µM	> 20 µM	> 20 µM	> 20 µM
CC[C@@]1(O)C(=O)OCc2c1cc1n(c2=O)Cc2cc3c(CN(C)C)c(O)ccc3nc2-1 [TOPOTECAN HYDROCHLORIDE]	0.218 µM	> 20 µM	> 20 µM	> 20 µM	> 20 µM	> 20 µM	> 20 µM	> 20 µM	> 20 µM
CCCCCCCc1[nH]c2ccccc2c(=O)c1O	> 20 µM	> 20 µM	> 20 µM	> 20 µM	> 20 µM	> 20 µM	> 20 µM	> 20 µM	> 20 µM
CC(C)(C)NC(=O)N[C@H](C(=O)N1C[C@H]2[C@@H]([C@H]1C(=O)NC(CC1CCC1)C(=O)C(N)=O)C2(C)C)C(C)(C)C (some centres undefined) [BOCEPREVIR]	> 20 µM	> 20 µM	> 20 µM	> 20 µM	> 20 µM	> 20 µM	> 20 µM	> 20 µM	> 20 µM
O=C1[C@H](CC[C@H](O)c2ccc(F)cc2)[C@@H](c2ccc(O)cc2)N1c1ccc(F)cc1 [EZETIMIBE]	> 20 µM	> 20 µM	> 20 µM	> 20 µM	> 20 µM	> 20 µM	> 20 µM	> 20 µM	> 20 µM
O=C(NCc1ncc(C(F)(F)F)cc1Cl)c1c(Cl)cccc1Cl	> 20 µM	> 20 µM	> 20 µM	> 20 µM	> 20 µM	> 20 µM	> 20 µM	> 20 µM	> 20 µM
CC[C@H]1OC(=O)[C@H](C)[C@@H](O[C@H]2C[C@@](C)(OC)[C@@H](O)[C@H](C)O2)[C@H](C)[C@@H](O[C@@H]2O[C@H](C)C[C@H](N(C)C)[C@H]2O)[C@](C)(O)C[C@@H](C)C(=O)[C@H](C)[C@@H](O)[C@]1(C)O [ERYTHROMYCIN]	> 20 µM	20 µM (≈ 14.7 µg/mL)	> 20 µM	> 20 µM	> 20 µM	> 20 µM	20 µM (≈ 14.7 µg/mL)	> 20 µM	> 20 µM
